Article PMC2585998 (Molecular cell, 2008)

Molecular target: SpoIVA (IVA; His6-SpoIVA) (Bacillus subtilis, UniProt P35149, K30A)
Experiment: ATPase, ADP production by TLC of alpha-32P-ATP
Type: biochemical
Conditions: Walker A mutant, diminished hydrolysis; 10 mM MgCl2, pH 7.5, 37 C

Sequence of SpoIVA (IVA; His6-SpoIVA) (P35149 whole entry K30A): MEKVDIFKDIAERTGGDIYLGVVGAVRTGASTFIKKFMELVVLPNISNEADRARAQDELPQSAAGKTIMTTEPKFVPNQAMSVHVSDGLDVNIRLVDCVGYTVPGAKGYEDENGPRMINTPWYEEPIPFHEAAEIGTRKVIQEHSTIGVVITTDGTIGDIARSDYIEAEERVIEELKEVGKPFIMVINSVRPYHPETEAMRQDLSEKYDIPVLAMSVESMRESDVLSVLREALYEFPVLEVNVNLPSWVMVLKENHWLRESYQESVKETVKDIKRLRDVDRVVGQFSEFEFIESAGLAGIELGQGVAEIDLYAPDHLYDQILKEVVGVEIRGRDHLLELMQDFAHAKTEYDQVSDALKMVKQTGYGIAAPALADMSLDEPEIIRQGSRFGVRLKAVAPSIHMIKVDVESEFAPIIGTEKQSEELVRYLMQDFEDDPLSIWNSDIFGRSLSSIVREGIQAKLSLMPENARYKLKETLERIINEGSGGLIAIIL

Nc1ncnc2c1ncn2[C@@H]1O[C@H](COP(=O)(O)OP(=O)(O)OP(=O)(O)O)[C@@H](O)[C@H]1O [ATP]
ATPase, ADP production by TLC of alpha-32P-ATP: Incubation of ATP with IVA^K30A, in contrast, led to the diminished accumulation of ADP
